row,SMILES,melting point
1,N#Cc1nn(-c2c([N+](=O)[O-])cc(C(F)(F)F)cc2[N+](=O)[O-])c(N)c1SC(F)(F)F,214 °C
2,Cc1noc(NS(=O)(=O)c2ccc(C(C)C)cc2)c1Br,130 to 133 °C
3,CCOCCOc1ccc(C(=O)Nc2ccc3cc(CN4CCCC4)cnc3c2C)c(F)c1,132 °C
4,CCCC(=O)Nc1cc(Sc2ccccc2)ccc1NC(=NC(=O)OC)NC(=O)OC,180 °C
5,CCn1nnc(Nc2ccc3nc(NCc4ccccc4OC)ccc3c2)n1,190 °C
6,COc1cccc(OC)c1-c1nc2nccnc2[nH]1,248 to 249 °C
7,Cc1cc(SCc2ccc(OCc3ccc(OC(F)(F)F)cc3)cc2)ccc1OCC(=O)O,141 to 142 °C
8,CC(C)(C)OC(=O)NC[C@H]1CC[C@H](CCO)CC1,78 to 80 °C
9,COc1ccc(CONC(=O)Cn2nnnc2S)cc1,167 to 168 °C
10,O=CC1=C(Br)CC(F)(Br)C=C1 (stereo not drawn),57 to 58 °C
11,CON=C(c1ccc2c(c1)sc(=O)n2CCOc1ccc(CC(OCC(F)(F)F)C(=O)O)cc1)C1CC1 (stereo not drawn),33 to 34 °C
12,CC(=O)N1N=C(c2ccc([N+](=O)[O-])cc2)c2cc(Br)ccc2CC1C (stereo not drawn),228 to 230 °C
13,O=C(O)c1ccc(-c2nnc(-c3ccc(OC(F)(F)C(F)(F)F)cc3)o2)cc1,301 to 307 °C
14,COc1ccc(-c2cc3c(Br)c(OC)ccc3o2)cc1,115 to 117 °C
15,O=C(OCC(O)CO)C(=O)c1ccc(OCCOc2ccc3ccccc3c2)cc1 (stereo not drawn),124 to 125 °C
16,CC(C)c1cccc(C(C)C)c1NC(=O)Nc1nnn[nH]1,> 240 °C
17,CN(CCN1CCN(c2cccc3c2OCCO3)CC1)c1cnn(C)c(=O)c1Cl,114 to 116 °C
18,CCCCNC(=O)C(C)n1cc(C)c(-c2ccccc2)n1 (stereo not drawn),82 to 84 °C
19,CCOc1ccc(CCN(C(=O)O)C(=O)[C@H](C)NC(C)=O)cc1OCC,84 to 86 °C
20,O=C1Cc2cc(F)ccc2Oc2ccccc21,63 to 64 °C
21,CSc1cc2n(c1C(=O)c1ccccc1)CCC2C(=O)O (stereo not drawn),191 to 192 °C
22,CCN(CC)C(=O)C1CCN(Cc2cnc3cc(NC(=O)c4ccc(-c5ccc(F)cc5)cc4)c(C)cc3c2)CC1,203 °C
23,CC(=O)OC1OC(COC(=O)c2ccccc2)CC(OC(=O)c2ccccc2)C1OC(=O)c1ccccc1 (stereo not drawn),123 to 124 °C
24,CNc1nc(-c2ccc(Cl)c(Cl)c2)ncc1N(C)C(=O)N1CCOCC1,227 °C
25,Cc1ccc2[nH]c(CO)cc2c1,94 to 95 °C

row,SMILES,melting point
1,CC(N1CCC(Cc2ccccc2)CC1)C(O)(NC(=O)c1ccccc1)c1ccc(N)cc1 (stereo not drawn),126 to 129 °C
2,N#CCCCCN1C(=NCCCn2ccnc2)c2cccc3cccc1c23,76 to 78.5 °C
3,CCOC(=O)C=Cc1cnc(Nc2ccccc2)nc1N,190 to 192 °C
4,Cn1c(SC(C(N)=O)c2ccccc2)nc2ccccc21 (stereo not drawn),185 to 187 °C
5,OCc1ccc(-c2cc3nccnc3[nH]2)cc1,284 to 285 °C
6,N#C/C=C/c1coc2ccccc2c1=O,192 to 194 °C
7,CCCCCCCCCCCCCCCCCCCC(C)=O,41 to 42 °C
8,O=c1c(Cc2ccccc2)cn(-c2cccc(Cl)c2)c2ncccc12,170 to 171 °C
9,COCc1ccc(C(=O)NC(C#N)n2cccn2)cc1 (stereo not drawn),155 to 157 °C
10,CC(C)(C)OC(=O)C1CCC(c2ccco2)N1C(=O)OC(C)(C)C (mixture of isomers),70 °C
11,CCCCCCCCCCCCCCCCCC(=O)NC(C)c1c[nH]c(CCCCCCCCCCCCCCCCC)n1 (stereo not drawn),76 to 82 °C
12,CC(C)(C)NS(=O)(=O)c1cnc(-c2cn(-c3nc(-c4ccc(C(F)(F)F)cc4)cc(C(F)(F)F)n3)cn2)s1,281 °C
13,Cc1oc(-c2ccco2)nc1COc1cc(CCl)ccn1,107 to 108 °C
14,COc1ccc(C2=NN(Cc3ccc(NC(=O)c4cccnc4)cc3)C(=O)CC2)cc1OC,184 °C
15,Cc1cc(S(=O)(=O)N2c3cc(F)ccc3-n3cccc3C2C)ccc1O (stereo not drawn),191 to 193 °C
16,Cc1nc(-n2cnn(Cc3c(C)noc3C)c2=O)sc1C(=O)NCc1cccnc1,233 to 234 °C
17,COc1ccc(C(C#Cc2ccccc2)Cc2noc(C)n2)cc1OC1CCCC1 (racemic),86 to 90 °C
18,CCCCNC(=S)Nc1onc2c1CCC2,93 °C
19,CCOC(=O)Cc1ccc(NC(=O)C(COc2cccnc2)NS(=O)(=O)c2ccc(Br)cc2)cc1 (racemic),168 to 171 °C
20,CCCCN(CCCC)c1ccc(C=CC=Cc2ccc(C=CC3=C(C#N)C(=C(C#N)C#N)OC3(c3ccccc3)C(F)(F)F)s2)c(OC)c1 (stereo not drawn),125 to 140 °C
21,O=C(O)C1=Cc2cc(OCc3ccccc3)ccc2OC1,184 to 189 °C
22,CN(C)CCOc1cc2c(Nc3ccc(F)c(Cl)c3)c(C#N)cnc2cn1,131 to 132 °C
23,CCCOC(=O)Nc1nc2ccccc2c2c1nc(COCC)n2CC(C)(C)NS(C)(=O)=O,125 to 127 °C
24,Nc1ncc(-c2ccccc2F)nc1C(=O)Nc1cccnc1,221 to 225 °C
25,COc1ccc(N2CCOCC2)c2sc(-c3nc4ccc(N5CCOCC5)nc4[nH]3)nc12,260 to 262 °C

row,SMILES,melting point
1,CNS(=O)(=O)Cc1ccc(C)cc1,49 to 52 °C
2,"O=C(NC(CS)Cc1ccccc1)N1CCN(c2ccc(Cl)cc2)CC1 (single isomer, unassigned; (+))",148 °C
3,CC#CCOc1ccc(S(=O)(=O)N(C)C(C(=O)NO)c2ccc(OCCCNC(=O)OCC)cc2)cc1 (stereo not drawn),60 to 62 °C
4,CNC(=O)C(Cc1ccc(OC)cc1)NC(=O)C(CC(C)C)C(CC(=O)N1CCN(C)CC1)SC(C)=O (stereo not drawn),133 to 138 °C
5,COc1cc(N)ccc1NC(=O)c1ccc(N)cc1,160 to 161 °C
6,CC(=Cn1ccnc1)C(=O)c1ccc(Cl)cc1Cl,129 to 130 °C
7,Cn1c(COc2ccc(CC3SC(=O)NC3=O)cc2)nc2ccc(Oc3cccc(NC(=O)Nc4ccc5c(c4)OCO5)c3)cc21 (stereo not drawn),179 to 182 °C
8,CC(C#N)C(O)(Cn1cncn1)c1ccc(Cl)cc1Cl (stereo not drawn),164 °C
9,CC(C)C(=O)C(C)(C)SN(C)C(=O)ON=C1SC(C)(C)C(=O)N1C,112 to 114 °C
10,FC(F)(F)c1cccc(-c2cc(CCl)on2)c1,33 to 37 °C
11,O=C(Cl)c1ccc2cc(C(=O)Cl)ccc2c1,186 °C
12,Cc1c(O)ncnc1C(F)F,166 to 167 °C
13,CCC(=O)Nc1c(C)c2c(c(Cc3ccc(C(C)C)cc3)c1C)OCC2,177 to 178 °C
14,Cn1c(C(F)(F)F)cc(=O)n(-c2ccc3snc(OCC#N)c3c2)c1=O,265 to 266 °C
15,O=C(NC(Oc1ccc(Cl)cc1)C(Cl)(Cl)Cl)c1ccccc1O (stereo not drawn),116 to 117 °C
16,CC(=O)OCc1nc(-c2ccc3c(c2)OCO3)c2cc3c(cc2n1)OCO3,144 to 147 °C
17,COC(=O)C=Cc1ccc(OCc2nc(-c3ccccc3)oc2C)c(F)c1,167 to 168 °C
18,COc1ccc2c(c1)[C@@]1(C(=O)O)CCCC[C@H]1CC2 (relative stereo),171 to 173 °C
19,COc1ccc(C(=O)NNC(=O)c2ccccc2)cc1,201 to 202 °C
20,N#CCc1cc2ccccc2s1,59 to 61 °C
21,O=C(Cc1noc2ccccc12)N[C@H]1CC[C@H](CCN2CCC(c3cccc4c3CCO4)CC2)CC1,214 °C
22,Cc1cc(C(=O)Nc2ccc(SC(F)(F)F)c(Cl)c2)c(O)c(C23CC4CC(CC(C4)C2)C3)c1,205 to 206 °C
23,O=C(N1CC(CCl)c2c1ccc1ccc(S(=O)(=O)N(Cc3ccccc3)Cc3ccccc3)cc21)C(F)(F)F (stereo not drawn),119 to 121 °C
24,Cc1nccn1Cc1cnn(-c2ccc(Cl)c(Cl)c2)c1,176 to 177 °C
25,CC(=O)OCc1c(CNC(=O)c2ccc(C(=O)O)cc2)ccc2c1C(C)(C)CCC2(C)C,95 to 100 °C

row,SMILES,melting point
1,O=c1c2ccccc2sn1SCc1ccccc1,111 to 112 °C
2,COc1ccc(-c2nnc(S)nc2-c2ccc(OC)cc2)cc1,228 to 232 °C
3,O=C1Cc2ccc(-c3ccccc3)cc2N1,173 to 175 °C
4,Cc1c(C)c2c(c(C)c1NC(=O)c1ccc(Cl)cc1)C(c1ccc(C(C)C)cc1)C(C)(C)O2 (stereo not drawn),201 to 203 °C
5,c1ccc(C2=NC(c3ccccn3)(c3ccccn3)N=C2c2ccccc2)cc1,214 to 216 °C
6,CC(C#N)=C1CCN(c2ccc(N3C[C@H](CO)OC3=O)cc2F)CC1,100 to 102 °C
7,CCCn1nc(C)c(C#N)c1N,104 to 105 °C
8,O=C(Nc1ccc(F)cc1F)NN1CC=CCC1,136 to 137 °C
9,CC(C)(CNC=O)c1ccc2nc(-c3c[nH]cn3)[nH]c2c1,240 to 246 °C
10,CCOC(=O)C1=C(C)NC(c2nccn2C)=NC1c1ccc(F)cc1 (stereo not drawn),134 to 136 °C
11,O=C1NC(=O)C(CC#Cc2ccc(Cl)cc2)(Sc2ccc(F)cc2)S1 (stereo not drawn),116 to 117 °C
12,COC(=O)NC(=NS(=O)(=O)NC(C)C)OC(C)C,62 to 64 °C
13,CS(=O)(=O)c1ccc(Oc2ccc(OCC#N)cc2)cc1,114 to 116 °C
14,COC(=O)CCc1cn(Cc2ccc(C(=O)OC(C)(C)C)cc2OC)c2cc(C(=O)NCC3CCCC3)ccc12,58 to 60 °C
15,CCOc1cc(OCC)cc(-c2cncn2-c2ccc(S(C)(=O)=O)cc2)c1,100 to 101 °C
16,CN1CCN(C2=Nc3cc(Cl)ccc3Nc3ccsc32)CC1,225 to 226 °C
17,CCCC=Nc1cc(CO)cc(Nc2c3ccccc3nc3ccccc23)c1,228 to 230 °C
18,O=C(O)CCC(=O)c1ccc(N2CCOCC2)cc1,167 to 168 °C
19,COCCc1nc2c(N)nc3c(c2n1CCOCCNC(=O)Nc1ccccc1)CCCC3,180 to 182 °C
20,CN(c1ccccc1)c1ncccc1NC(=O)c1ccccc1Br,144 to 146 °C
21,CCCNC(=NS(=O)(=O)N(C)C)N1CC(c2ccccc2)C(c2ccc(Cl)cc2)=N1 (stereo not drawn),127 to 129 °C
22,CC1(C)COC(C=Cc2ccc([N+](=O)[O-])cc2)OC1,86.5 to 88.5 °C
23,COc1ccc(C(=O)Nc2cc(-c3c(-c4ccc(F)c(C)c4)nc4ccc(N(C)C)nn34)ccn2)cc1,224 to 225 °C

# From a melting point compilation (Tetko et al.; mined from patent text by program, amines drawn as free bases though some values may be those of a salt)
